Results reported in PubChem BioAssay AID624323 (Sanford-Burnham Center for Chemical Genomics, 2012).
Converted amounts (≈) assume the structure as drawn. The source made the active and inactive calls. No rule for the calls is given here.

Tested on: aqueous buffer solubility, pH 5.0/6.2/7.4
Assay: aqueous buffer solubility at three pH values, ADME assay, biophysical, set 2 (AID 624323)
Conditions: at 100 µM, stronger effect = higher value
[1] = measured here: solubility at pH 5.0
[2] = measured here: solubility at pH 6.2

`O=C(O)CCC(NS(=O)(=O)c1ccc(-c2ccccc2)cc1)C(=O)O` (centres undefined) was tested, and the solubility was over 36 µg/mL, the solubility [1] was over 36 µg/mL and the solubility [2] was over 36 µg/mL.
`Cc1ccc(S(=O)(=O)C(c2ccccc2)c2c(C)noc2C)cc1` (centres undefined) was tested, and the solubility was 16.5 µg/mL (≈ 48.3 µM), the solubility [1] was 15.5 µg/mL (≈ 45.4 µM) and the solubility [2] was 16.9 µg/mL (≈ 49.5 µM).
For `Cc1cc(-c2nnc3n2CCCCC3)c(C)n1-c1ccccc1`, the solubility was over 30 µg/mL, the solubility [1] was over 30 µg/mL and the solubility [2] was over 30 µg/mL.
With `COc1cccc(-c2nc(-c3ccc(NC(=O)Cc4ccccc4OC)cc3)no2)c1` the solubility was < 0.01 µg/mL (inactive), the solubility [1] was 0.09 µg/mL (≈ 0.217 µM) and the solubility [2] was 0.05 µg/mL (≈ 0.12 µM).
`Cn1nnnc1Sc1ncnc2scc(-c3ccccc3)c12` was tested, and the solubility was 3.5 µg/mL (inactive) (≈ 10.7 µM), the solubility [1] was 2.9 µg/mL (≈ 8.88 µM) and the solubility [2] was 3.1 µg/mL (≈ 9.5 µM).
In the case of `Cc1ccc(C)c(NS(=O)(=O)c2cc(C(=O)Nc3ccccc3-c3ccccc3)ccc2Cl)c1`, the solubility is reported as 0.81 µg/mL (inactive) (≈ 1.65 µM), the solubility [1] is reported as under 0.1 µg/mL and the solubility [2] is reported as under 0.1 µg/mL.
Work on `CN1CSC(=S)N(C)C1` yielded a solubility of over 16 µg/mL, a solubility [1] of 12.4 µg/mL (≈ 76.4 µM) and a solubility [2] of 12.7 µg/mL (≈ 78.3 µM).
With `CN(C)c1nc(N)nc(CSc2nnnn2-c2cccc3ccccc23)n1` the solubility was 1 µg/mL (inactive) (≈ 2.64 µM), the solubility [1] was 2.8 µg/mL (≈ 7.38 µM) and the solubility [2] was 1 µg/mL (≈ 2.64 µM).
In the case of `CCOC(=O)C(C)Oc1cccc2c(=O)n(CC(=O)Nc3ccc4c(c3)OCCO4)ccc12` (centres undefined), the solubility is reported as 0.36 µg/mL (inactive) (≈ 0.796 µM), the solubility [1] is reported as 0.27 µg/mL (≈ 0.597 µM) and the solubility [2] is reported as 0.31 µg/mL (≈ 0.685 µM).
For `CCCc1cc(C(=O)N(C2CCCCC2)C2CCCCC2)no1`, the solubility was 1.3 µg/mL (inactive) (≈ 4.08 µM), the solubility [1] was 2.1 µg/mL (≈ 6.59 µM) and the solubility [2] was 2 µg/mL (≈ 6.28 µM).
In the case of `CCN1CCN(c2nc3ccccc3nc2C(C#N)C(=O)OC2CCCCC2)CC1` (centres undefined), the solubility is reported as 25.8 µg/mL (≈ 63.3 µM), the solubility [1] is reported as over 40 µg/mL and the solubility [2] is reported as over 40 µg/mL.
`CCCC(=O)Nc1cccc(NC(=O)c2ccccc2Br)c1` was tested, and the solubility was over 36 µg/mL, the solubility [1] was over 36 µg/mL and the solubility [2] was over 36 µg/mL.
`CCCn1ncc(CN2CCCC(C(=O)c3cccc(OC(C)C)c3)C2)c1C` (centres undefined) was tested, and the solubility was over 38 µg/mL, the solubility [1] was over 38 µg/mL and the solubility [2] was over 38 µg/mL.
With `COc1ccc(CNCc2cccc3ccccc23)cc1` the solubility was 26.2 µg/mL (≈ 94.5 µM), the solubility [1] was over 36 µg/mL and the solubility [2] was over 36 µg/mL.
Compound `O=C(c1ccccn1)N(Cc1cccs1)C1(C(=O)NC2CCCCC2)CCCCC1` has a solubility of 22.7 µg/mL (≈ 53.3 µM), a solubility [1] of 7.4 µg/mL (≈ 17.4 µM) and a solubility [2] of 15 µg/mL (≈ 35.2 µM).
For `O=C1CCCC2=C1C1(CCCC1)N=C(Nc1nc3ccccc3o1)N2`, the solubility was 0.07 µg/mL (inactive) (≈ 0.208 µM), the solubility [1] was 0.07 µg/mL (≈ 0.208 µM) and the solubility [2] was 0.09 µg/mL (≈ 0.268 µM).
In the case of `COc1ccc(S(=O)(=O)N2CCN(S(=O)(=O)c3ccc4c(c3)OCCO4)CC2)cc1`, the solubility is reported as < 0.1 µg/mL (inactive), the solubility [1] is reported as 0.13 µg/mL (≈ 0.286 µM) and the solubility [2] is reported as under 0.1 µg/mL.
`Brc1ccc2c(c1)CN1CCCC1=N2` was tested, and the solubility was over 25 µg/mL, the solubility [1] was over 25 µg/mL and the solubility [2] was over 25 µg/mL.
With `CCOc1ccc(-c2nc(-c3ccncc3)no2)cc1OCC` the solubility was 1.3 µg/mL (inactive) (≈ 4.18 µM), the solubility [1] was 1.1 µg/mL (≈ 3.53 µM) and the solubility [2] was 1.3 µg/mL (≈ 4.18 µM).
For `CCCOc1ccc(-c2nc(OC)c3ccccc3n2)cc1`, the solubility was 0.02 µg/mL (inactive) (≈ 0.0679 µM), the solubility [1] was 0.05 µg/mL (≈ 0.17 µM) and the solubility [2] was under 0.01 µg/mL.
Work on `Cc1cc(C(=O)CN2C(=O)CCC2=O)c(C)n1Cc1ccccc1` yielded a solubility of over 32 µg/mL, a solubility [1] of 25.2 µg/mL (≈ 77.7 µM) and a solubility [2] of 22.6 µg/mL (≈ 69.7 µM).
For `Cc1ccccc1N1CCN(c2ncnc3c2cnn3Cc2ccc(Cl)cc2)CC1`, the solubility was < 0.01 µg/mL (inactive), the solubility [1] was 0.03 µg/mL (≈ 0.0716 µM) and the solubility [2] was under 0.01 µg/mL.
`COc1ccc(OC)c(S(=O)(=O)Nc2cnc3ccccc3c2)c1` showed a solubility of 25.8 µg/mL (≈ 74.9 µM), a solubility [1] of 20.8 µg/mL (≈ 60.4 µM) and a solubility [2] of 25.7 µg/mL (≈ 74.6 µM).
`COc1nc(-c2ccccc2)nnc1-c1ccccc1` was tested, and the solubility was 0.38 µg/mL (inactive) (≈ 1.44 µM), the solubility [1] was 1 µg/mL (≈ 3.8 µM) and the solubility [2] was 0.78 µg/mL (≈ 2.96 µM).
`O=c1[nH]c2c(s1)C(c1cccnc1)C1C3CCC(C3)C1S2` (centres undefined) gave a solubility of 21.7 µg/mL (≈ 68.6 µM), a solubility [1] of 24 µg/mL (≈ 75.8 µM) and a solubility [2] of 21.8 µg/mL (≈ 68.9 µM).
`COc1ccc(C2c3c(ncn(CCN4CCOCC4)c3=N)Oc3ccc4ccccc4c32)cc1OC` (centres undefined) showed a solubility of 41.5 µg/mL (≈ 83.2 µM), a solubility [1] of over 49 µg/mL and a solubility [2] of 41.2 µg/mL (≈ 82.6 µM).
For `Cc1nc(SCc2nc3ccccc3[nH]2)c2oc3ccccc3c2n1`, the solubility was 0.11 µg/mL (inactive) (≈ 0.318 µM), the solubility [1] was 0.26 µg/mL (≈ 0.751 µM) and the solubility [2] was 0.22 µg/mL (≈ 0.635 µM).
For `Cc1cc2c(s1)c1cnn(Cc3ccccc3F)c(=O)c1n2C`, the solubility was 0.11 µg/mL (inactive) (≈ 0.336 µM), the solubility [1] was 0.16 µg/mL (≈ 0.489 µM) and the solubility [2] was 0.19 µg/mL (≈ 0.58 µM).
With `COc1ccc(Sc2ccc(NC(=O)c3ccccc3Cl)cc2C#N)cc1` the solubility was 0 µg/mL (inactive), the solubility [1] was 0.01 µg/mL (≈ 0.0253 µM) and the solubility [2] was under 0.01 µg/mL.
Compound `O=C1C2CC=CCC2C(=O)N1c1n[nH]c(-c2ccccc2)n1` (centres undefined) has a solubility of over 29 µg/mL, a solubility [1] of 16 µg/mL (≈ 54.4 µM) and a solubility [2] of 20.2 µg/mL (≈ 68.6 µM).
`Cn1cnc([N+](=O)[O-])c1Sc1ncnc2nc[nH]c12` was tested, and the solubility was over 27 µg/mL, the solubility [1] was over 27 µg/mL and the solubility [2] was over 27 µg/mL.
With `O=C1NCCCc2c1oc1ccc(O)cc21` the solubility was over 22 µg/mL, the solubility [1] was over 22 µg/mL and the solubility [2] was over 22 µg/mL.
`Oc1cc(O)cc(/C=C/c2ccc(O)c(O)c2)c1` was tested, and the solubility was 10.1 µg/mL (≈ 41.4 µM), the solubility [1] was over 24 µg/mL and the solubility [2] was over 24 µg/mL.
